Results on one substance are retold here after US11472843B2, “Malacidins and methods of use” (The Rockefeller University, priority 2017, dated 2022).

One may read the MIC as the smallest concentration in the dilution series that meets the test's criterion for growth inhibition.

Series [1] has as its system UDP-MurNAc-pentapeptide in MRSA USA300. The experiment in a line: UDP-MurNAc-pentapeptide accumulation assay. The format is cell-based, Staphylococcus aureus. As to conditions: 10 μg ml^−1, 60 min, UPLC-MS. On the procedure:
The intracellular accumulation of the cell wall precursor UDP-MurNAc-pentapeptide after treatment of MRSA USA300 with malacidin was assessed as previously described (Schneider et al., […], Antimicrob Agents Ch 53:1610-18). In brief, single colonies of MRSA USA300 were grown in LB media with and without 15 mM CaCl2 to an OD600 nm of 0.6. […] of cells and medium were incubated with a final concentration of 130 μg ml^−1 chloramphenicol for 15 min at 37° C. Antibiotics to be assayed were added at 10 μg ml^−1 and incubated for 60 min at 37° C. Vancomycin, known to form a complex with lipid II, was used as a positive control. Cells were collected by centrifugation, and resuspended in 30 μl dH2O and incubated in boiling water for 15 min. The cell extract was then centrifuged at 14,000 g. Supernatant was analysed for UDP-linked cell wall precursors by a UPLC-MS system. Experiments were performed with biological replicates.

The test system of a further series is S. aureus NRS140. The experiment in a line: MIC assay, S. aureus NRS140. The note with it: β-lactams. The format is cell-based, Staphylococcus aureus. On the procedure: (§1) MIC assays were performed in duplicate in 96-well microtiter plates on the basis of the protocol recommended by the Clinical and Laboratory Standards Institute (Cockerill, 2012, Clinical and Laboratory Standards Institute). All presented data are the average of at least three independent assays. Stock solutions of malacidin or daptomycin (2 mg ml^−1 in H2O) were added to the first well in a row and serially diluted (twofold per transfer) across the microtiter plate. CaCl2 was supplemented to media at a final concentration of 15 mM and fetal bovine serum (ATCC) was added to media (1:10) to test the effect of serum. Overnight cultures of bacteria were diluted 5,000-fold, and 50 μl was used as an inoculum in each well. MIC values were determined by visual inspection after 18 h incubation (30° C., static growth). For the enhanced calcium titration experiments, standard MIC assays were performed with methicillin-resistant Staphylococcus aureus (MRSA) PFGE strain type USA300 in media supplemented with CaCl2 at: 25.0, 18.8, 14.1, 7.03, 3.52, 2.50, 1.76, 0.880, 0.440, 0.250 and 0 mM. To assess the effects of monovalent and divalent cations on malacidin activity, standard MIC assays were performed with MRSA USA300 in media supplemented with 15 mM CaCl2, MgCl2, MnCl2, ZnCl2, SrCl2, NaCl and KCl. To evaluate the effects of pulmonary surfactants on activity against a community-acquired pneumonia-causing pathogen, standard MIC assays were performed with Streptococcus pneumoniae TCH8431 in media supplemented with both 15 mM CaCl1 and Survanta (beractant) at a final concentration of 5, 1, 0.5, 0.25 or 0% (volume/volume (v/v) percent).

Series [2] relates to Lactobacillus rhamnosus NCTC 13031. The experiment in a line: MIC assay, L. rhamnosus. The format is cell-based. Here is the method:
as §1, with “To evaluate the effects of pulmonary surfactants on activity against a community-acquired pneumonia-causing pathogen, standard MIC assays were performed with Streptococcus pneumoniae TCH8431 in media supplemented with both 15 mM CaCl1 and Survanta (beractant) at a final concentration of 5, 1, 0.5, 0.25 or 0% (volume/volume (v/v) percent).” left out

The subject of series [3] is red blood cell (5% sheep blood agar plates). The format is cell-based. On the procedure:
(§2) Cytotoxicity against human cell lines was tested using an ATP release assay, CelITiter-Glo (Promega), according to the manufacturer's instructions. HEK293 cells (293FT, Thermo Fisher Scientific, no. R700-07) and MRC5 cells (ATCC CCL-171) were grown in complete DMEM media supplemented with 10% FBS, and were inspected visually for authentication and tested for mycoplasma contamination using a MycoAlert detection kit (Lonza). Cells were grown to confluence, trypsinized, counted and plated in 384-well cell culture plates at an appropriate density (2,500 cells per well for HEK293 and 1000 cells per well for MRC5). The test compound was added 24 h later in the presence of calcium, and viability was determined after 4.5 h of incubation. Experiments were performed with biological replicates. Haemolytic activity was evaluated by a red blood cell disc diffusion assay. Twenty-microlitre stocks of malacidin A and Triton X-100 were infused on filter discs, dried completely and then overlaid on 5% sheep blood agar plates (Hardy Diagnostics). The plates were incubated for 24 h at 20° C., and then checked for lysis.

Series [4] deals with Pseudomonas aeruginosa PAO1. The experiment in a line: MIC assay, P. aeruginosa. Type of series: cell-based. On the procedure:
as §1

The next series relates to MRSA USA300. The experiment in a line: Selection for malacidin-resistant mutants. The note with it: 20 days of exposure to 0.5×MIC, 15 mM calcium. The format is cell-based, Staphylococcus aureus. Here is the method: To select for resistant mutants, a single MRSA USA300 colony from a freshly struck plate was inoculated into LB media and grown overnight at 37° C. The saturated overnight culture was diluted 100-fold, supplemented with a sub-lethal dose (0.5×MIC) of malacidin A, vancomycin, daptomycin or rifamycin and 15 mM calcium. Two-hundred-microlitre aliquots were then distributed into microtiter plate wells. The next day, 3 μl of culture from each well was used to inoculate 200 μl of calcium-supplemented media (15 mM calcium) with fresh antibiotic at 0.5× and 4×MIC. This process was repeated for 20 days. […] This was repeated over the course of the experiment to assess fold change in MIC at day 0 to day 20.

In series [5] the test system is Streptococcus mutans UA159. The experiment in a line: MIC assay, S. mutans. The format is cell-based. Here is the method: as §1, with “To evaluate the effects of pulmonary surfactants on activity against a community-acquired pneumonia-causing pathogen, standard MIC assays were performed with Streptococcus pneumoniae TCH8431 in media supplemented with both 15 mM CaCl1 and Survanta (beractant) at a final concentration of 5, 1, 0.5, 0.25 or 0% (volume/volume (v/v) percent).” left out

The subject of a further series is S. aureus NRS146. The experiment in a line: MIC assay, S. aureus NRS146. The format is cell-based, Staphylococcus aureus. The note with it: β-lactams. Here is the method:
as §1

The test system of the next series is S. aureus USA300. The experiment in a line: MIC assay, S. aureus USA300 (MRSA). The format is cell-based, Staphylococcus aureus. Here is the method:
as §1

The subject of the next series is Escherichia coli DH5α. The experiment in a line: MIC assay, E. coli DH5α. Type of series: cell-based. On the procedure:
as §1

The test system of the next series is S. aureus NRS100. The experiment in a line: MIC assay, S. aureus NRS100. The format is cell-based, Staphylococcus aureus. The note with it: β-lactams. Here is the method:
as §1

The subject of series [6] is Bacillus subtilis 168 IAI. The experiment in a line: MIC assay, B. subtilis. The format is cell-based. On the procedure:
as §1

A further series deals with MRC5 cells. Type of series: cell-based, human. Here is the method: as §2

Consider malacidin A, for which the “Accumulation of cell wall intermediate UDP-MurNAc-pentapeptide” value in [1] was “accumulation of the cell wall intermediate UDP-MurNAc-pentapeptide”. Also, the MIC is 0.4-0.8 μg m1^−1 with S. aureus NRS140 (S. aureus NRS140, erythromycin, spectinomycin, 15 mM CaCl2); 0.4 to 2.0 µg/mL in the series on S. aureus NRS140 (Staphylococcus aureus NRS140, Erythromycin, Spectinomycin); 0.1-0.2 μg m1^−1 in [2] (L. rhamnosus, 15 mM CaCl2); 0.1 to 0.2 µg/mL in series [2] (Lactobacillus rhamnosus NCTC 13031); over 100 µg/mL in series [4]; 0.1-0.2 μg m1^−1 in series [5] (S. mutans, 15 mM CaCl2). For the same substance, the MIC is 0.1 to 0.2 µg/mL in [5] (Streptococcus mutans UA159); 0.4-0.8 μg m1^−1 against S. aureus NRS146 (S. aureus NRS146, vancomycin (VISA), 15 mM CaCl2); 0.4 to 0.8 µg/mL in the series on S. aureus NRS146 (Staphylococcus aureus NRS146, Vancomycin (VISA)); 0.2-0.8 μg m1^−1 in the series with S. aureus USA300 (S. aureus USA300 + 10% serum, 15 mM CaCl2); 0.2-0.8 μg m1^−1 in the series on S. aureus USA300 (S. aureus USA300, acquired resistance β-lactams, 15 mM CaCl2); 0.2 to 0.8 µg/mL in the series with S. aureus USA300 (Staphylococcus aureus + 10% Serum, USA300). Also, the MIC against S. aureus USA300 (Staphylococcus aureus USA300, β-lactams (Methicillin, Oxacillin, Penicillin)) is 0.2 to 0.8 µg/mL; against Escherichia coli DH5α, over 100 µg/mL; with S. aureus NRS100 (S. aureus NRS100, tetracycline, 15 mM CaCl2), 0.2-0.8 μg m1^−1; against S. aureus NRS100 (Staphylococcus aureus NRS100, Tetracycline), 0.2 to 0.8 µg/mL; in series [6] (B. subtilis, 15 mM CaCl2), 0.2-0.4 μg m1^−1; in series [6] (Bacillus subtilis 168 IAI), 0.2 to 0.4 µg/mL. The Haemolytic activity entry in series [3] was “no hemolytic effects”. Besides, the “Detection of resistant S. aureus after repeated exposure” value in the series on MRSA USA300 is “not detected”. Besides, the “Dependence of antibiosis (MIC) against MRSA on calcium” value in the series on S. aureus USA300 (MRSA USA300, CaCl2 0 to 25.0 mM) is on record as “calcium-dependent”. Also, in the series on MRC5 cells, the “MIC (a = Viability assessed by ATP release assay)” value is on record as over 100a μg mL^−1. For the same substance, the IC50 with MRC5 cells (MRC5, viability, in the presence of calcium, 4.5 h) is over 100 μg m1^−1.
